{
  "source": "patent US20250134883A1",
  "about": "“NOVEL COMPOSITIONS” (TULEX PHARMACEUTICALS INC., priority 2022, published 2025)",
  "origin": "cited, not measured here",
  "conditions": "high dose naltrexone (0.5, 1.0 and 2.0 mg/kg)",
  "data": [
    {"smiles": "O=C1CC[C@@]2(O)[C@H]3Cc4ccc(O)c5c4[C@@]2(CCN3CC2CC2)[C@H]1O5", "note": "[naltrexone, Naltrexone]", "values": [
      {"measurement": "effect on autistic behavior and gaze aversion", "result": "reverse autistic behavior and gaze aversion"}
    ]}
  ]
}
